Experiments:
Type in all cases: in vivo
[1] = tested on: ryegrass, Italian (Italian ryegrass, Lolium multiflorum); test: Test A postemergence; settings: Lolium multiflorum, post-emergence, 240 h, Postemergence, read-out: Ryegrass, Italian plant response rating (0 to 100 scale)
Method in brief: (§1)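 Preemergence directed soil spray on seeded pots, or postemergence application to plants 2–10 cm, one- to two-leaf. Solvent mixture non-phytotoxic, with surfactant. Scored ~10 d later, visually, 0–100 vs untreated.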

[2] = tested on: blackgrass (Alopecurus myosuroides); test: Test A postemergence; settings: Alopecurus myosuroides, post-emergence, 240 h, Postemergence, read-out: Blackgrass plant response rating (0 to 100 scale)
Method in brief: as §1

[3] = tested on: barnyardgrass (Echinochloa crus-galli); test: Test A postemergence; settings: Echinochloa crus-galli, post-emergence, 240 h, Postemergence
Method in brief: as §1

[4] = tested on: ragweed (common ragweed, Ambrosia elatior); test: Test A postemergence; settings: Ambrosia artemisiifolia, post-emergence, 240 h, Postemergence, read-out: Ragweed plant response rating (0 to 100 scale)
Method in brief: as §1

[5] = tested on: wheat (Triticum aestivum); test: Test A postemergence; settings: Triticum aestivum, post-emergence, 240 h, Postemergence, read-out: Wheat plant response rating (0 to 100 scale)
Method in brief: as §1

[6] = tested on: Galium (catchweed bedstraw, Galium aparine); test: Test A postemergence; settings: Galium, post-emergence, 240 h, Postemergence, read-out: Galium plant response rating (0 to 100 scale)
Method in brief: as §1

[7] = tested on: corn (Zea mays); test: Test A postemergence; settings: Zea mays, post-emergence, 240 h, Postemergence, read-out: Corn plant response rating (0 to 100 scale)
Method in brief: as §1

[8] = tested on: giant foxtail (Setaria faberii); test: Test A postemergence; settings: Setaria faberi, post-emergence, 240 h, Postemergence, read-out: Foxtail, Giant plant response rating (0 to 100 scale)
Method in brief: as §1

[9] = tested on: Kochia (Kochia scoparia); test: Test A postemergence; settings: Bassia scoparia, post-emergence, 240 h, Postemergence, read-out: Kochia plant response rating (0 to 100 scale)
Method in brief: as §1

[10] = tested on: pigweed (Amaranthus retroflexus); test: Test A postemergence; settings: Amaranthus retroflexus, post-emergence, 240 h, Postemergence, read-out: Pigweed plant response rating (0 to 100 scale)
Method in brief: as §1

[11] = tested on: ryegrass, Italian (Italian ryegrass, Lolium multiflorum); test: Test A preemergence; settings: Lolium multiflorum, pre-emergence, 240 h, 0 to 100 scale where 0 is no effect and 100 is complete control, read-out: Ryegrass, Italian plant response rating
Method in brief: as §1

[12] = tested on: barnyardgrass (Echinochloa crus-galli); test: Test A preemergence; settings: Echinochloa crus-galli, pre-emergence, 240 h, 0 to 100 scale where 0 is no effect and 100 is complete control, read-out: Barnyardgrass plant response rating
Method in brief: as §1

[13] = tested on: ragweed (common ragweed, Ambrosia elatior); test: Test A preemergence; settings: Ambrosia artemisiifolia, pre-emergence, 240 h, 0 to 100 scale where 0 is no effect and 100 is complete control, read-out: Ragweed plant response rating
Method in brief: as §1

[14] = tested on: giant foxtail (Setaria faberii); test: Test A preemergence; settings: Setaria faberi, pre-emergence, 240 h, 0 to 100 scale where 0 is no effect and 100 is complete control, read-out: Foxtail, Giant plant response rating
Method in brief: as §1

[15] = tested on: Kochia (Kochia scoparia); test: Test A preemergence; settings: Bassia scoparia, pre-emergence, 240 h, 0 to 100 scale where 0 is no effect and 100 is complete control, read-out: Kochia plant response rating
Method in brief: as §1

[16] = tested on: pigweed (Amaranthus retroflexus); test: Test A preemergence; settings: Amaranthus retroflexus, pre-emergence, 240 h, 0 to 100 scale where 0 is no effect and 100 is complete control, read-out: Pigweed plant response rating
[17] = tested on: sedge, umbrella (small-flower umbrella sedge, Cyperus difformis); test: Test B flooded paddy test; settings: Cyperus difformis, 250 g ai/ha, Flood; 0 to 100 scale where 0 is no effect and 100 is complete control; read-out: Sedge, Umbrella plant response rating
Method in brief: (§2)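 Flooding to 3 cm over soil accompanied treatment, which consisted of adding compound to the standing water around 2-leaf plants; depth was then maintained. Visual assessment versus controls followed at 13 to 15 d (scale 0–100, 0 meaning no effect).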

[18] = tested on: barnyardgrass (Echinochloa crus-galli); test: Test B flooded paddy test; settings: Echinochloa crus-galli, 250 g ai/ha, Flood; 0 to 100 scale where 0 is no effect and 100 is complete control; read-out: Barnyardgrass plant response rating
Method in brief: as §2

[19] = tested on: rice (Oryra sativa); test: Test B flooded paddy test; settings: Oryza sativa, 250 g ai/ha, Flood; 0 to 100 scale where 0 is no effect and 100 is complete control; read-out: Rice plant response rating
Method in brief: as §2

[20] = tested on: ducksalad (Heteranthera limosa); test: Test B flooded paddy test; settings: Heteranthera limosa, 250 g ai/ha, Flood; 0 to 100 scale where 0 is no effect and 100 is complete control; read-out: Ducksalad plant response rating
Method in brief: as §2

[21] = 125 g ai/ha, visual rating about 10 d after treatment
[22] = 31 g ai/ha, 0 is no effect, 100 is complete control
[23] = 125 g ai/ha, preemergence, visual injury rating, approximately 10 d

CN1C[C@H](c2ccc(C(F)(F)F)cc2)[C@@H](C(=O)Nc2ccccc2-n2cccn2)C1=O [Compound 1283]
0%: pest or weed control at 125 g/ha [1, 21] | pest or weed control at 31 g/ha [1, 22] | pest or weed control at 125 g/ha [2, 21] | pest or weed control at 31 g/ha [2, 22] | pest or weed control at 125 g/ha ([3]; 125 g ai/ha, visual rating about 10 d after treatment, read-out: Barnyardgrass plant response rating (0 to 100 scale, 0 no effect, 100 complete control)) | pest or weed control at 31 g/ha ([3]; 31 g ai/ha, 0 is no effect, 100 is complete control, read-out: Barnyardgrass plant response rating (0 to 100 scale)) | pest or weed control at 125 g/ha [4, 21] | pest or weed control at 31 g/ha [4, 22] | plant injury at 125 g/ha [5, 21] | plant injury at 31 g/ha [5, 22] | pest or weed control at 125 g/ha [6, 21] | pest or weed control at 31 g/ha [6, 22] | plant injury at 125 g/ha [7, 21] | plant injury at 31 g/ha [7, 22] | pest or weed control at 125 g/ha [8, 21] | pest or weed control at 31 g/ha [8, 22] | pest or weed control at 125 g/ha [9, 21] | pest or weed control at 31 g/ha [9, 22] | pest or weed control at 125 g/ha [10, 21] | pest or weed control at 31 g/ha [10, 22] | pest or weed control at 31 g/ha ([11]; 31 g ai/ha, Preemergence) | pest or weed control at 125 g/ha [11, 23] | pest or weed control at 31 g/ha ([12]; 31 g ai/ha, Preemergence) | pest or weed control at 125 g/ha [12, 23] | pest or weed control at 31 g/ha ([13]; 31 g ai/ha, Preemergence) | pest or weed control at 125 g/ha [13, 23] | pest or weed control at 31 g/ha ([14]; 31 g ai/ha, Preemergence) | pest or weed control at 125 g/ha [14, 23] | pest or weed control at 31 g/ha ([15]; 31 g ai/ha, Preemergence) | pest or weed control at 125 g/ha [15, 23] | pest or weed control at 31 g/ha ([16]; 31 g ai/ha, Preemergence) | pest or weed control at 125 g/ha [16, 23] | pest or weed control at 250 g/ha [17] | pest or weed control at 250 g/ha [18] | pest or weed control at 250 g/ha [19] | pest or weed control at 250 g/ha [20]

From patent publication US12077503B2, “Substituted cyclic amides and their use as herbicides” (FMC CORPORATION, priority 2015, dated 2024)
